Laboratory results published in patent publication US20240409496A1, “SPERMINE DERIVATIVES AS HEPARIN ANTIDOTES” (CONSEJO SUPERIOR DE INVESTIGACIONES CIENTÍFICAS (CSIC), priority 2021, published 2024).

Columns and labels:
[1] = tested on: [FXa-Hep-ATIII] complex; assay: Blood coagulation factor in vitro enzymatic assay (FXa/ATIII/Hep, chromogenic peptide hydrolysis); assay type: biochemical, human; details: for in vitro potency as Hep antidote (recovery of FXa activity), rank order: 1 μM of each binder, Hep 0.1 IU/mL, FIG. 2B; for activity as Hep antidote in the enzymatic assay compared with ciraparantag: percent hydrolysis at 30 min, FIG. 2C
Procedure: Blood coagulation factor in vitro enzymatic assays: Recombinant antithrombin Ill and coagulation Factor Xa were obtained from the Berichrom Heparin test, supplied by SIEMENS. Following the indications of the test kit, stock solutions were prepared as follows: Human antithrombin III (1 IU/mL), Factor Xa reagent (0.4 μg/mL, human plasma fraction with the additives Tris, sodium chloride and EDTA) and a chromogenic substrate specific for factor Xa (4 mM of Z-D-Leu-Gly-ArgANBA-methyl amide). On the other hand, 4-nitroaniline (Sigma Aldrich) was added to the substrate solution at a concentration of 1.6 mM and was used as internal standard to quantify the hydrolysis of the chromogenic substrate. Heparin (sodium salt from porcine intestinal mucosa, polydisperse, from 6000 to 30000 Daltons) was purchased from Sigma-Aldrich. All compounds were dissolved in mili-Q water at the desired stock concentrations prior to start the assays and kept at 4° C. Various concentrations of the ligand, heparin (0.1 IU/mL), human antithrombin Ill solution (3.5 μL) and Factor Xa reagent solution (35 μL) were added in order to an Eppendorf and brought to a total volume of 145 μL. Then, 20 μL of Reagent Substrate solution was added to start the experiment and the mixture was vigorously shaken at 25° C. 20 μL samples were taken at minutes 5/10/15/20/30/50/80/120, diluted with 40 μL of acetic acid (20% v/v), and injected in the analytical HPLC. The gradient ranged from 5% ACN (0.1% formic acid) in water (0.1% formic acid) to 100% ACN in 24 minutes using a 15×4.6 mm KROMAPHASE C18 5.0 μm column (retention time of cleaved chromophore 9.1 min, retention time of chromogenic substrate 13.9 min, retention time of 4-nitroaniline 15.4 min). Concentrations of reagents have been adjusted compared with previous studies with the intention to slow down the total exhaustion of peptide substrate. In this way the activity can be more carefully modulated and any change is easier to detect. FXa/ATIII activity was represented as percent of hydrolysis, which was calculated from the normalized area of cleaved peptide at 405 nm at each corresponding time point. Experiment carried out in absence of heparin was considered as maximum of activity while experiment with heparin and no ligand was considered as negative control (maximum inhibition of FXa by heparin). Concentration of heparin was selected for the measurement to render a significant inhibition within experimental time, while allowing the reaction to proceed.
In vitro inhibition of heparin activity. The effect of the binders as Hep antidotes can be tested in vitro using an enzymatic reaction related to the blood coagulation process (FIG. 2A). This test employs human recombinant coagulation factor Xa (FXa) and antithrombin III (ATIII), with the synthetic peptide Z-D-LGR-N(Me)ANBA as the substrate of the FXa protease to mimic the prothrombin to thrombin transformation that triggers blood coagulation. Heparin forms a ternary complex with ATIII and FXa with a low hydrolytic activity, as a model for the anticoagulation effect of Hep. The addition of an efficient Hep binder dissociates the [FXa-Hep-ATIII] complex, thus releasing the active form of FXa that cleaves the substrate. The peptide hydrolysis can be readily monitored by analytical HPLC thanks to the ANBA chromophore, as an accurate measurement of the reaction kinetics.
In parallel experiments, the addition of equal concentration (1 μM) of each of the binders produces a different level of recovery of the FXa activity. […] Actually, several selected molecules derived from spermine were tested in the enzymatic assay (FIG. 2C) most of them showing activity in the reversal of the heparin action.

[2] = Surface Plasmon Resonance (SPR) on heparin-functionalized chips; assay type: binding
Procedure: Surface Plasmon Resonance (SPR): Affinity experiments between inhibitors and heparin were performed on an Open SPR™(Nicoya). All measurements were performed at 25° C. using a working buffer of 25 mM Tris at pH 7.5. Biotin-loaded sensor chips (NICOYA) were further functionalized with streptavidine (50 μg/mL) and later with biotin-heparin (50 μg/mL). Binding experiments to heparin were performed by injecting inhibitors at desired concentrations and at a rate of 40 μL/min. Between binding assays, the surface was regenerated by exposure to an injection of 10 mM HCl. Fitting has been performed by Trace Drawer software using a ‘one-to-one two-state algorithm’, which considers a 1:1 binding with a further equilibrium like a conformational change. Results obtained from three independent experiments at three different concentrations of the ligands were fit globally to render the corresponding on/off rate constants and the apparent dissociation constants (KD^app Table 1, as shown below).
Binding of the spermine derivatives to the heparin target. Surface Plasmon Resonance (SPR) on heparin-functionalized chips were used to determine the apparent dissociation constant of selected molecules (KD^app, Table 1).

[3] = tested on: heparinized mice; assay: In vivo tail transection assay with mice; parameters: species or system mouse; details: for reversal of Hep activity in vivo (bleeding of heparinized mice): Hep 100 IU/kg i.v. followed by 2.2 or 4.4 mg/kg, blood collected 10 minutes, FIG. 3B; for blood loss of heparinized mice at the highest doses: Hep 100 IU/kg, highest dose (4.4 mg/kg)
Procedure: In vivo tail transection assays with mice: Eight-weeks old CD-1 male mice (Janvier-Labs) were used for the study. Animals were housed under a 12 h light: dark cycle in an environmentally controlled room and free access to water and food. Mice were randomly assigned into 6 groups (n=6 for each group). Animals were anesthetized by i.p. injections of 0.465 mg/kg xylazine (Rompun, Bayer DVM) and 1.395 mg/kg ketamine (Imalgene 100, Merial Laboratorios). After anesthetizing them, different solutions were injected intravenously according to the assigned group: Saline group (only saline was given), Hep group (Hep injection, 100 IU/kg), 3AC (two groups, Hep injection followed by injection of 3AC at 2.2 mg/kg or 4.4 mg/kg) and 3FF (two groups, Hep injection followed by injection of 3FF at 2.2 mg/kg or 4.4 mg/kg). Two additional control groups (n=3) were included in which only the ligand (3AC or 3FF) at the highest dose (4.4 mg/kg) was injected. At 5 minutes after injections, tails were transected at 5 mm from the tip and immediately inserted in a tube containing 1 ml of saline buffer immersed in a water bath at 37° C., where the blood draining out of the wound was collected for 10 minutes. The blood draining out from the wound was collected in each tube. Tails were let bleed during 10 minutes. The total blood volume in each tube was quantified by spectrophotometry (absorbance at 414 nm) from a standard curve that was constructed with known volumes of blood hemoglobin concentration and corresponding absorbance value. Statistical analysis of the data was done with Kaleida Graph 4.5.4 using ANOVA.
3FF and 3AC were tested in an in vivo coagulation model. It was thus performed the tail transection assay with mice after consecutive injection of Hep, and the drugs at two different doses each (FIG. 3B). The control groups injecting saline or Hep, and those corresponding to just the drugs were also included.

[4] = tested on: freshly extracted mouse blood with Hep; assay: Ex vivo blood coagulation assay; details: for reversal of anticoagulant effect of Hep in mouse blood (clot formation): Hep 130 μM, various ligand concentrations, 15 minutes, FIG. 3A
Procedure: Ex vivo blood coagulation assays: Freshly collected mouse blood was collected and directly used without further treatment. 300 μL aliquots were prepared. To them, Hep (130 μM), and various concentration of ligand (3AC or 3FF) were added. The samples of the different conditions were added to an Eppendorf tube and a picture was taken after 15 minutes. The clot formation was confirmed by turning around the Eppendorf vials.
Reversing the anticoagulant activity of heparin: In order to check the efficacy of the antidotes in a more representative environment, 3FF and 3AC were tested in real blood coagulation assays. Thus, it has been monitored the coagulation of freshly extracted mouse blood in the absence or presence of Hep, and upon addition of different concentrations of 3FF and 3AC.

SMILES	in vitro potency as Hep antidote (recovery of FXa activity), rank order [1]	affinity to Hep compared with ciraparantag [2]	reversal of Hep activity in vivo (bleeding of heparinized mice) [3]	blood loss of heparinized mice at the highest doses [3]	reversal of anticoagulant effect of Hep in mouse blood (clot formation) [4]	activity as Hep antidote in the enzymatic assay compared with ciraparantag [1]	in vivo reversal potency, 3AC compared with 3FF ([3]; tail transection, mice)	ex vivo antidote quality, 3AC compared with 3FF ([4]; equal doses, qualitative)
Oc1ccccc1CNCCCNCCCCNCCCNCc1ccc2ccccc2c1O [Compound 3AG, 2-(16-(2-hydroxyphenyl)-2,6,11,15-tetraazahexadecyl)naphthalen-1-ol]	3AG (rhombuses)<3AF	–	–	–	–	–	–	–
Oc1ccccc1CNCCCNCCCCNCCCNCc1c(O)ccc2ccccc12 [Compound 3AF, 1-(16-(2-hydroxyphenyl)-2,6,11,15-tetraazahexadecyl)naphthalen-2-ol]	3AF (open circles)<3FF	–	–	–	–	–	–	–
Oc1ccc2ccccc2c1CNCCCNCCCCNCCCNCc1c(O)ccc2ccccc12 [Compound 3FF, 1,1′-(2,6,11,15-tetraazahexadecane-1,16-diyl)bis(naphthalen-2-ol)]	3FF (inverted solid triangles)<3AC	higher affinity to Hep than ciraparantag	efficient antidotes of Hep also in vivo, strongly reducing the bleeding of heparinized mice	reversed to values very similar to those of the control group injected with saline	able to revert the anticoagulant effect of Hep in a dose-response manner	comparable with the drug ciraparantag	–	–
Oc1ccccc1CNCCCNCCCCNCCCNCc1cccc2ccccc12 [Compound 3AL, 2-(16-(naphthalen-1-yl)-2,6,11,15-tetraazahexadecyl)phenol, reference compound]	3AL (X symbols)≤3AG	–	–	–	–	–	–	–
Oc1ccccc1CNCCCNCCCCNCCCNCc1ccc2c(c1)Cc1ccccc1-2 [Compound 3AC, 2-(16-(9H-fluoren-2-yl)-2,6,11,15-tetraazahexadecyl)phenol]	<3AC	higher affinity to Hep than ciraparantag	efficient antidotes of Hep also in vivo, strongly reducing the bleeding of heparinized mice	reversed to values very similar to those of the control group injected with saline	able to revert the anticoagulant effect of Hep in a dose-response manner	even more potent	more potent reversal agent than 3FF	better antidote than 3FF
